What was measured:
Assay type in all cases: biochemical, Coriolus versicolor
pyranose oxidase [1] = target: T1, pyranose oxidase (Trametes versicolor, UniProt P79076); conditions: for Percent Inhibition (%): 0.2 ml of 18.5 mM inhibitor solution, 280 mU pyranose oxidase, pH 7.0, 37° C.
T1 construct: made in house; not recombinant
Source text: The inhibitor is studied in the same manner as that adopted in determination of the optimum pH.

pyranose oxidase [2] = target: T1, pyranose oxidase; assay: Electron acceptor test (Thunberg tube, absorbancy change)
Procedure: In this phase, 1.4 ml of 50 mM tris-hydrochloride buffer (pH 7.0), 0.1 ml of 250 mU enzyme solution and 0.5 ml of electron acceptor solutions having various concentrations as indicated in Table 2 are put into a cell with Thunberg tube. […] The change in absorbancy per minute from 30 minutes to 90 minutes after the mixturing is determined and the activities of the electron acceptors are expressed as relative activity.

pyranose oxidase [3] = target: T1, pyranose oxidase; assay: biochemical; parameters: activity: dose or concentration left out as unconfirmed; conditions: for activity: pH 7, read-out: Relative Activity (%); for activity at 100000 µM: pH 7, read-out: Relative Activity (%); for Substrate specificity in words: same test as Table 1
Procedure: Said coloring reagent is prepared by adding 0.1M tris-hydrochloride buffer (pH 7.0) containing 10 m mol/l 4-aminoantipyrine(hereinafter referred to as 4AA) and 10 m mol/l phenol, to peroxidase in a concentration of 2000 U per 100 ml of the buffer. The increasing rate of the absorbancy at 500 nm is automatically measured on a spectrophotometer. The molecular extinction coefficient of a quinoneimine pigment formed under these conditions is defined as 5.3×10^3, and one unit of the enzymatic activity is also defined as the amount of the enzyme that produces one μ mole of hydrogen peroxide per minute at a temperature of 37° C. and at a pH of 7.0.
The results are expressed as percentages of the glucose reaction.

[4] = electron acceptor solution 0.1 mM, pH 7.0, dissolved oxygen removed
[5] = electron acceptor solution 0.1 mM, pH 7.0, dissolved oxygen removed, read-out: Relative Activity (%)

O=S(=O)([O-])[O-].[Cu+2] [copper sulfate]
Inhibition of the enzymatic action in words (pyranose oxidase [1]): inhibited | Percent Inhibition (%) (pyranose oxidase [1]): 35.7%

Cytochrome C
Suitability as electron acceptor in words (pyranose oxidase [2]): may be made electron acceptor | Relative Activity (%) (pyranose oxidase [2]; [4]): 0.33%

Nitroprusside-tetrazolium
Relative Activity (%) (pyranose oxidase [2]; [4]): 0%

OC[C@H]1O[C@H](O[C@H]2[C@H](O)[C@@H](O)[C@H](O)O[C@@H]2CO)[C@H](O)[C@@H](O)[C@@H]1O [maltose]
activity (pyranose oxidase [3]): 0%

O=[N+]([O-])[O-].[Ag+] [silver nitrate]
Inhibition of the enzymatic action in words (pyranose oxidase [1]): inhibited | Percent Inhibition (%) (pyranose oxidase [1]): 53.3%

O=S(=O)([O-])[O-].[Co+2] [cobalt sulfate]
Percent Inhibition (%) (pyranose oxidase [1]): 13.3%

NC(=O)c1ccc[n+]([C@@H]2O[C@H](COP(=O)([O-])OP(=O)(O)OC[C@H]3O[C@@H](n4cnc5c(N)ncnc54)[C@H](OP(=O)(O)O)[C@@H]3O)[C@@H](O)[C@H]2O)c1 [Nicotinamide-adenine dinucleotide phosphate]
activity at 100 µM (stock) (pyranose oxidase [2]; [5]): 0%

O=C(CO)[C@H](O)[C@@H](O)[C@H](O)CO [sorbose]
activity at 100000 µM (pyranose oxidase [3]): 3.4% | Substrate specificity in words (pyranose oxidase [3]): acts upon

OC[C@H]1O[C@@H](O[C@H]2[C@H](O)[C@@H](O)C(O)O[C@@H]2CO)[C@H](O)[C@@H](O)[C@H]1O (stereo partly shown) [lactose]
activity (pyranose oxidase [3]): 0%

NC(=O)c1ccc[n+]([C@@H]2O[C@H](COP(=O)([O-])OP(=O)(O)OC[C@H]3O[C@@H](n4cnc5c(N)ncnc54)[C@H](O)[C@@H]3O)[C@@H](O)[C@H]2O)c1 [Nicotinamide-adenine dinucleotide]
activity at 100 µM (stock) (pyranose oxidase [2]; [5]): 0%

OC1OC[C@@H](O)[C@H](O)[C@H]1O (stereo partly shown) [xylose]
activity (pyranose oxidase [3]): 2.6% | Substrate specificity in words (pyranose oxidase [3]): acts upon

O=C(CO)[C@@H](O)[C@H](O)[C@H](O)CO [fructose]
activity at 100000 µM (pyranose oxidase [3]): 0%

O=S(=O)([O-])[O-].[Mg+2] [magnesium sulfate]
Percent Inhibition (%) (pyranose oxidase [1]): 0%

OC[C@H]1O[C@H](O[C@H]2O[C@H](CO)[C@@H](O)[C@H](O)[C@H]2O)[C@H](O)[C@@H](O)[C@@H]1O [trehalose]
activity (pyranose oxidase [3]): 0%

O=C(O)c1cc[c]([Hg][Cl])cc1 [p-chloromercuribenzoate]
Inhibition of the enzymatic action in words (pyranose oxidase [1]): inhibited | Percent Inhibition (%) (pyranose oxidase [1]): 50.0%

O=C1C(Cl)=CC(=Nc2ccc(O)cc2)C=C1Cl [2,6-Dichlorophenolindophenol]
Suitability as electron acceptor in words (pyranose oxidase [2]): may be made electron acceptor | activity at 40 µM (stock) (pyranose oxidase [2]; electron acceptor solution 0.04 mM, pH 7.0, dissolved oxygen removed, read-out: Relative Activity (%)): 2.5%

O=C(O)[C@H](O)[C@@H](O)[C@H](O)[C@H](O)CO [gluconic acid]
activity (pyranose oxidase [3]): 0%

O=O [Oxygen]
Suitability as electron acceptor in words (pyranose oxidase [2]): optimum electron acceptor | Relative Activity (%) (pyranose oxidase [2]; electron acceptor: dissolved oxygen, pH 7.0, glucose substrate): 100%

OC[C@@H](O)[C@@H](O)[C@H](O)[C@H](O)CO [mannitol]
activity (pyranose oxidase [3]): 0%

N[C@H]1C(O)O[C@H](CO)[C@@H](O)[C@@H]1O (stereo partly shown) [glucosamine]
activity (pyranose oxidase [3]): 0%

From US4636464A (priority 1985, dated 1987)
